# Experimental data published in patent US20230146795A1, “ENHANCEMENT OF ANTI-TUMOR ACTIVITY OF SHP2 INHIBITOR PYRIMIDINONE IN COMBINATION WITH NOVEL CANCER MEDICINES IN CANCERS” (TAIHO PHARMACEUTICAL CO., LTD., priority 2020, published 2023).
# Assays:
# SHP2 = target: T1, SHP2 (Homo sapiens, UniProt Q06124); assay: SHP2 biochemical assay (DiFMUP conversion); settings: 10 pM SHP2, 0.25 μM pIRS1 peptide, 50 μM DiFMUP
# T1 sequence (Q06124 1-593): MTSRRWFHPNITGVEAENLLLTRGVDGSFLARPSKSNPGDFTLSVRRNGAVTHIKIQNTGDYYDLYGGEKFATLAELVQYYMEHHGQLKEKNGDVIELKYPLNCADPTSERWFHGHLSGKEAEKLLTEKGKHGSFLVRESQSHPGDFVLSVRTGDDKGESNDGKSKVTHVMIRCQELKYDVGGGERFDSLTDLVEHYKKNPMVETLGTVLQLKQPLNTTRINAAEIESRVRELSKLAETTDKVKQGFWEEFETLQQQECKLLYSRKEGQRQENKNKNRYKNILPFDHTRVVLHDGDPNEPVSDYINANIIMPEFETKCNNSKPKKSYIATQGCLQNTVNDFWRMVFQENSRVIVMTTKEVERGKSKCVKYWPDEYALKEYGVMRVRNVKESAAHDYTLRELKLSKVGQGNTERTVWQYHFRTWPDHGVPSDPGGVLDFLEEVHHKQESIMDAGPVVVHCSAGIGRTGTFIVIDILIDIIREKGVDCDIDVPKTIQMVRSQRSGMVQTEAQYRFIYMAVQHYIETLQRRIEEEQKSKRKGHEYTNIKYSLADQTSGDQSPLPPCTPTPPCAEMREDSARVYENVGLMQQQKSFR
# Method: (1) SHP2 Biochemical Assay SHP2 Activity was Monitored by Measuring the Conversion of the Surrogate Substrate 6,8-Difluoromethylumbelliferyl Phosphate (DiEMUP) to the Fluorescent Product, 6,8-Difluoromethylumbelliferone (DiFMU).
# SHP2 was pre-incubated with test compounds and the activating peptide pIRS1 (H2N-LN(pY) IDLDLV-(PEG) 8-LST(pY)ASINFQK-amide) for 30 min, prior to addition of the 6,8-difluoromethylumbelliferyl phosphate (DiEMUP), (Thermo Fisher D6567). Final assay concentrations were 10 pM SHP2, 0.25 μM pIRS1 peptide, 50 μM DiFMUP, 25 mM Bis-Tris propane, pH 7.0, 150 mM NaCl, 0.05% (v/v) Tween-20, 0.5 mM TCEP and 5% (v/v) DMSO. Rates of reaction were then measured over 30 min by monitoring fluorescence on a BMG Pherastar reader at excitation 360 nm/emission 450 nm. IC50 values were calculated in singlicate from the normalized dose-response plots using four parameter logistic curve fit. The Experiment for each compound was carried out in one time or multiple times, and the IC50 values were shown as a single value (for a compound measured in a single experiment) or an average value (for a compound measured in multiple experiments).
# RMG-I = assay: Anti-proliferation assay (CellTiter-Glo 2.0), combination index, RMG-I; assay type: cell-based
# Method: (§1) Cell lines were obtained from ATCC or Health Science Research Resources Bank.
# (§2) 384 well culture plate (781086, Greiner Bio-One International) was used for cell survival rate measurement assay. Each cell lines were collected by ordinary method, then suspended in indicated medium containing 10% fetal bovine serum in table 3. The number of cells seeded per well was set to 500 cells/20 μL. After incubation at 37° C. for 24 hours under 5% CO2, Compound 1 and additional compound having an antitumor effect or a vehicle (DMSO) was added to each well by using D300e Digital Dispenser (Tecan). The concentration of Compound 1 was set to 10 concentrations. The concentration of each anti-cancer reagents set to 8 concentrations including 0 nM. After adding the medicine to the cells, the cells were further incubated at 37° C. for 3 days under 5% CO2. Cell survival rates were calculated by adding 20 μL of CellTiter-Glo(registered trademark) 2. 0 (Promega) solution to each well, incubating the cells at room temperature for 10 minutes, and then measuring the chemiluminescence intensity of each well using a plate reader (ARVO).
# (§3) A combination index (CI) value at each combined concentration of the medicines was determined.
# MV-4-11 = assay: Anti-proliferation assay (CellTiter-Glo 2.0), combination index, MV-4-11; assay type: cell-based
# Method: as §1, §2, §3
# MKN45 = assay: Anti-proliferation assay (CellTiter-Glo 2.0), combination index, MKN45; assay type: cell-based
# Procedure, shortened: (§4)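 Cells were seeded at 500 cells/well in medium with 10% FBS and exposed to agents at 8 concentrations including 0 nM, for 3 days at 37° C under 5% CO2. Survival was read by CellTiter-Glo 2.0 luminescence, and combination index was determined at each combined concentration.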
# NCI-H358 = assay: Anti-proliferation assay (CellTiter-Glo 2.0), combination index, NCI-H358; assay type: cell-based
# Procedure, shortened: as §4
# NCI-H23 = assay: Anti-proliferation assay (CellTiter-Glo 2.0), combination index, NCI-H23; assay type: cell-based
# Method: as §1
# Each cell lines were collected by ordinary method, then suspended in indicated medium containing 10% fetal bovine serum in table 3. The number of cells seeded per well was set to 500 cells/20 μL. […] The concentration of each anti-cancer reagents set to 8 concentrations including 0 nM. After adding the medicine to the cells, the cells were further incubated at 37° C. for 3 days under 5% CO2. Cell survival rates were calculated by adding 20 μL of CellTiter-Glo(registered trademark) 2. 0 (Promega) solution to each well, incubating the cells at room temperature for 10 minutes, and then measuring the chemiluminescence intensity of each well using a plate reader (ARVO).
# as §3
# [1] = Compound 1 1.52 + combination drug 123 nmol/L (1:81)
# [2] = Compound 1 4.57 + combination drug 370 nmol/L (1:81)
# [3] = Compound 1 13.7 + combination drug 1110 nmol/L (1:81)
# [4] = Compound 1 41.2 + combination drug 3330 nmol/L (1:81)
# [5] = Compound 1 123 + combination drug 10000 nmol/L (1:81)
# [6] = Compound 1 1.52 + combination drug 41.2 nmol/L (1:27)
# [7] = Compound 1 4.57 + combination drug 123 nmol/L (1:27)
# [8] = Compound 1 13.7 + combination drug 370 nmol/L (1:27)
# [9] = Compound 1 41.2 + combination drug 1110 nmol/L (1:27)
# [10] = Compound 1 123 + combination drug 3330 nmol/L (1:27)
# [11] = Compound 1 370 + combination drug 10000 nmol/L (1:27)
# [12] = Compound 1 123 + combination drug 370 nmol/L (1:3)
# [13] = Compound 1 370 + combination drug 1110 nmol/L (1:3)
# [14] = Compound 1 1110 + combination drug 3330 nmol/L (1:3)
# [15] = Compound 1 3330 + combination drug 10000 nmol/L (1:3)
# [16] = Compound 1 41.2 + combination drug 123 nmol/L (1:3)
structure (smiles),measurement,setting,value
"Cn1nc2ccc(-c3c[nH]c4nc(N5C[C@H]6CC[C@@H]5[C@@H]6N)n(C)c(=O)c34)c(Cl)c2c1Cl [Compound 5, 2-((1R,4R,7R)-7-amino-2-azabicyclo[2.2.1]heptan-2-yl)-5-(3,4-dichloro-2-methyl-2H-indazol-5-yl)-3-methyl-3,7-dihydro-4H-pyrrolo[2,3-d]pyrimidin-4-one]",IC50,SHP2,1.5 nM
"CCn1cc2c(Cl)c(-c3c[nH]c4nc(N5[C@H]6CC[C@@H]5[C@H](N)C6)n(C)c(=O)c34)ccc2n1 [Compound 7, 2-((1R,2R,4S)-2-amino-7-azabicyclo[2.2.1]heptan-7-yl)-5-(4-chloro-2-ethyl-2H-indazol-5-yl)-3-methyl-3,7-dihydro-4H-pyrrolo[2,3-d]pyrimidin-4-one]",IC50,SHP2,3.3 nM
"Cn1nc2ccc(-c3n[nH]c4nc(N5C[C@H]6CC[C@@H]5[C@@H]6N)n(C)c(=O)c34)c(Cl)c2c1Cl [Compound 2, 6-((1R,4R,7R)-7-amino-2-azabicyclo[2.2.1]heptan-2-yl)-3-(3,4-dichloro-2-methyl-2H-indazol-5-yl)-5-methyl-1,5-dihydro-4H-pyrazolo[3,4-d]pyrimidin-4-one]",IC50,SHP2,2.6 nM
"NC1(c2ccc(-c3nc4ccn5c(=O)[nH]nc5c4cc3-c3ccccc3)cc2)CCC1 [MK-2206, 8-[4-(1-aminocyclobutyl)phenyl]-9-phenyl-1,2,4-triazolo[3,4-f][1,6]naphthyridin-3(2H)-one]",CI,RMG-I; [1],0.724
same,Fa,RMG-I; [1],0.1204
same,CI,RMG-I; [2],0.398
same,Fa,RMG-I; [2],0.2545
same,CI,RMG-I; [3],0.314
same,Fa,RMG-I; [3],0.4133
same,CI,RMG-I; [4],0.320
same,Fa,RMG-I; [4],0.5593
same,CI,RMG-I; [5],0.353
same,Fa,RMG-I; [5],0.6868
same,Description (combinatory effect by CI),RMG-I; Compound 1:combination drug molar ratio 1:81,Synergy (0.3-0.7)
same,CI,MV-4-11; [1],0.315
same,Fa,MV-4-11; [1],0.2639
same,CI,MV-4-11; [2],0.520
same,Fa,MV-4-11; [2],0.3899
same,CI,MV-4-11; [3],0.446
same,Fa,MV-4-11; [3],0.6851
same,CI,MV-4-11; [4],0.318
same,Fa,MV-4-11; [4],0.9006
same,CI,MV-4-11; [5],0.137
same,Fa,MV-4-11; [5],0.9846
same,CI,MKN45; [6],0.315
same,Fa,MKN45; [6],0.1506
same,CI,MKN45; [7],0.564
same,Fa,MKN45; [7],0.1981
same,CI,MKN45; [8],0.408
same,Fa,MKN45; [8],0.3872
same,CI,MKN45; [9],0.383
same,Fa,MKN45; [9],0.5869
same,CI,MKN45; [10],0.420
same,Fa,MKN45; [10],0.7489
same,CI,MKN45; [11],0.608
same,Fa,MKN45; [11],0.8398
same,Description (combinatory effect by CI),MKN45; Compound 1:combination drug molar ratio 1:27,Synergy (0.3-0.7)
same,CI,NCI-H358; [12],0.477
same,Fa,NCI-H358; [12],0.2532
same,CI,NCI-H358; [13],0.204
same,Fa,NCI-H358; [13],0.4838
same,CI,NCI-H358; [14],0.301
same,Fa,NCI-H358; [14],0.5761
same,CI,NCI-H358; [15],0.213
same,Fa,NCI-H358; [15],0.7446
same,CI,NCI-H23; [16],0.783
same,Fa,NCI-H23; [16],0.1015
same,CI,NCI-H23; [12],0.265
same,Fa,NCI-H23; [12],0.2110
same,CI,NCI-H23; [13],0.232
same,Fa,NCI-H23; [13],0.3486
same,CI,NCI-H23; [14],0.295
same,Fa,NCI-H23; [14],0.5074
same,CI,NCI-H23; [15],0.340
same,Fa,NCI-H23; [15],0.7061
"Cn1cc2c(Cl)c(-c3c[nH]c4nc(N5C[C@H]6CC[C@@H]5[C@@H]6N)n(C)c(=O)c34)ccc2n1 [Compound 4, 2-((1R,4R,7R)-7-amino-2-azabicyclo[2.2.1]heptan-2-yl)-5-(4-chloro-2-methyl-2H-indazol-5-yl)-3-methyl-3,7-dihydro-4H-pyrrolo[2,3-d]pyrimidin-4-one]",IC50,SHP2,3.7 nM
"Cn1nc2ccc(-c3c[nH]c4nc(N5[C@H]6CC[C@@H]5[C@H](N)C6)n(C)c(=O)c34)c(F)c2c1Cl [Compound 6, 2-((1R,2R,4S)-2-amino-7-azabicyclo[2.2.1]heptan-7-yl)-5-(3-chloro-4-fluoro-2-methyl-2H-indazol-5-yl)-3-methyl-3,7-dihydro-4H-pyrrolo[2,3-d]pyrimidin-4-one]",IC50,SHP2,2.8 nM
